Data reported in patent US20040097574A1, “Glucocorticoid mimetics, methods of making them, pharmaceutical compositions, and uses thereof” (Boehringer Ingelheim Pharmaceuticals, Inc., priority 2002, published 2004).

Assays:
[1] = system: glucocorticoid receptor function; assay: Glucocorticoid receptor function, one or more of the above assays (agonist/antagonist/modulator activity); assay type: cell-based; conditions: in one or more of the above assays
Protocol: B. Glucocorticoid Receptor Cell Assays
1. Induction of Aromatase in Fibroblasts (Cell Assay for Transactivation)
Dexamethasone, a synthetic ligand to the glucocorticoid receptor (GR), induces expression of aromatase in human foreskin fibroblast cells. The activity of aromatase is measured by the conversion of testosterone to estradiol in culture media.
On the day of the experiment, the media in the wells is replaced with fresh media. Cells are treated with test compounds to final concentrations of 10^−5 M to 10^−8 M, and testosterone to a final concentration of 300 ng/mL. Each well has a total volume of 100 μL. Samples are made in duplicates. Control wells include: (a) wells that receive testosterone only, and (b) wells that receive testosterone plus 2 μM of dexamethasone to provide maximum induction of aromatase. Plates are incubated at 37° C. overnight (15 to 18 hours), and supernatants are harvested at the end of incubation. […] The amount of estradiol is inversely proportional to the ELISA signals in each well. The extent of aromatase induction by test compounds is expressed as a relative percentage to dexamethasone. EC50 values of test compounds are derived by non-linear curve fitting.
2. Inhibition of IL-6 Production in Fibroblasts (Cell Assay for Transrepression)
Human foreskin fibroblast cells produce IL-6 in response to stimulation by pro-inflammatory cytokine IL-1.
On the next day, media in the wells is replaced with fresh media. Cells are treated with IL-1 (rhIL-1α, R&D Systems Cat. No. 200-LA) to a final concentration of 1 ng/mL, and with test compounds to final concentrations of 10^−5 M to 10^−8 M, in a total volume of 200 μL per well. Samples are done in duplicates. […] Positive control wells receive IL-1 only and represent maximum (or 100%) amount of IL-6 production. Plates are incubated at 37° C. overnight (15 to 18 hours), and supernatants are harvested at the end of incubation. IL-6 levels in the supernatants are determined by the ELISA kits for IL-6 (MedSystems Diagnostics GmbH, Vienna, Austria, Cat. No. BMS213TEN) according to manufacture's instructions. The extent of inhibition of IL-6 by test compounds is expressed in percentage relative to positive controls. IC50 values of test compounds are derived by non-linear curve fitting.
Evaluation of agonist or antagonist activity of compounds binding to the glucocorticoid receptor may be determined by any of the assays.
3. Modulation of Tyrosine Aminotransferase (TAT) Induction in Rat Hepatoma Cells
Testing of compounds for agonist or antagonist activity in induction of tyrosine aminotransferase (TAT) in rat hepatoma cells.
H4-II-E-C3 cells were incubated overnight in 96 well plates (20,000 cells/100 μL/well) in MEM medium containing 10% heat inactivated FBS and 1% nonessential amino acids. On the next day, cells were stimulated with the indicated concentrations of dexamethasone or test compound (dissolved in DMSO, final DMSO concentration 0.2%) for 18 hours. Control cells were treated with 0.2% DMSO. After 18 hours, the cells were lysed in a buffer containing 0.1% Triton X-100 and the TAT activity was measured in a photometric assay using tyrosine and alpha-ketoglutarate as substrates.
For measuring antagonist activity, the hepatoma cells were pre-stimulated by addition of dexamethasone (concentration ranges from 3×10^−9 M to 3×10^−8 M) shortly before the test compound was applied to the cells.
4. Modulation of MMTV-Luc Induction in HeLa Cells
Testing of compounds for agonist or antagonist activity in stimulation of MMTV-(mouse mammary tumor virus) promoter in HeLa cells.
Cells were cultured overnight in DMEM medium without phenol red, supplemented with 3% CCS (charcoal treated calf serum) and then transferred to 96 well plates (15,000 cells/100 μL/well).

[2] = target: T1, human glucocorticoid receptor (GR) complex (Homo sapiens, UniProt P04150); assay: Glucocorticoid receptor competitive binding assay (fluorescence polarization); conditions: competition with TAMRA-labeled dexamethasone; read-out: potent activity in the GR binding assay (IC50)
T1 construct: made in house; host or cells: insect expression system (baculovirus lysate)
T1 sequence (P04150 1-777): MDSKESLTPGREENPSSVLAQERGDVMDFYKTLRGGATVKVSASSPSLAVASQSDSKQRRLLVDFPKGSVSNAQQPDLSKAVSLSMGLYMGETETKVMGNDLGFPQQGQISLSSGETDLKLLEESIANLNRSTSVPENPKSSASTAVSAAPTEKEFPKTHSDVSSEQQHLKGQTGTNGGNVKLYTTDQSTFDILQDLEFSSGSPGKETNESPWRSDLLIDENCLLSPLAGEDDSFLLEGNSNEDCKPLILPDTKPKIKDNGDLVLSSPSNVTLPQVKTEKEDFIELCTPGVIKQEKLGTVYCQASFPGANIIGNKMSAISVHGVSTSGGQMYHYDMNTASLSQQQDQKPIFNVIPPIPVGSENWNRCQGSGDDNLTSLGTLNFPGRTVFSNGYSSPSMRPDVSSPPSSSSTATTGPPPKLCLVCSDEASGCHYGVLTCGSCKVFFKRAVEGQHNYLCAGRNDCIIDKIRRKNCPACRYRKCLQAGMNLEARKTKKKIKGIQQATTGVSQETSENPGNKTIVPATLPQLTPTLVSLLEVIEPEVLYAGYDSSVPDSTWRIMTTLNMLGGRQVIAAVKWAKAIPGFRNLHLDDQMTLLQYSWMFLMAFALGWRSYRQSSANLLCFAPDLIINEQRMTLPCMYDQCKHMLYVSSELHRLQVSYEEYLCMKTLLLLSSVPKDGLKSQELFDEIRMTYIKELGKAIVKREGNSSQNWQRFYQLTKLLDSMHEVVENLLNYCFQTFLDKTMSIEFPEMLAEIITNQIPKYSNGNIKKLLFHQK
Protocol: Compounds of the invention were evaluated for binding to the steroid receptor by a fluorescence polarization competitive binding assay. Detailed descriptions for preparation of recombinant glucocorticoid receptor (GR) complex used in the assay is described in U.S. Patent Application Publication No. US 2003/0017503, filed May 20, 2002, and the corresponding U.S. provisional application No. 60/291,877, filed May 18, 2001, each of which is incorporated herein by reference in its entirety. Preparation of the tetramethyl rhodamine (TAMRA)-labeled dexamethasone probe was accomplished using a standard literature procedure (M. Pons et al., J. Steroid Biochem., 1985, 22, pp. 267-273).
A. Glucocorticoid Receptor Competitive Binding Assay
Step 1. Characterization of the Fluorescent Probe
The wavelengths for maximum excitation and emission of the fluorescent probe should first be measured. An example of such a probe is rhodamine (TAMRA)-labeled dexamethasone.
The affinity of the probe for the steroid receptor was then determined in a titration experiment. The fluorescence polarization value of the probe in assay buffer was measured on an SLM-8100 fluorometer using the excitation and emission maximum values described above. Aliquots of expression vector lysate were added and fluorescence polarization was measured after each addition until no further change in polarization value was observed. Non-linear least squares regression analysis was used to calculate the dissociation constant of the probe from the polarization values obtained for lysate binding to the probe.
Step 2. Screening for Inhibitors of Probe Binding
This assay uses fluorescence polarization (FP) to quantitate the ability of test compounds to compete with tetramethyl rhodamine (TAMRA)-labeled dexamethasone for binding to a human glucocorticoid receptor (GR) complex prepared from an insect expression system. The assay buffer was: 10 mM TES, 50 mM KCl, 20 mM Na2MoO4.2H2O, 1.5 mM EDTA, 0.04% w/v CHAPS, 10% v/v glycerol, 1 mM dithiothreitol, pH 7.4. Test compounds were dissolved to 1 mM in neat DMSO and then further diluted to 10x assay concentration in assay buffer supplemented with 10% v/v DMSO. Test compounds were serially diluted at 10x assay concentrations in 10% DMSO-containing buffer in 96-well polypropylene plates. Binding reaction mixtures were prepared in 96-well black Dynex microtiter plates by sequential addition of the following assay components to each well: 15 μL of 10x test compound solution, 85 μL of GR-containing baculovirus lysate diluted 1:170 in assay buffer, and 50 μL of 15 nM TAMRA-labeled dexamethasone. Positive controls were reaction mixtures containing no test compound; negative controls (blanks) were reaction mixtures containing 0.7 μM to 2 μM dexamethasone. The binding reactions were incubated for 1 hour at room temperature and then read for fluorescence polarization in the LJL Analyst set to 550 nm excitation and 580 nm emission, with the Rhodamine 561 dichroic mirror installed. IC50 values were determined by iterative non-linear curve fitting of the FP signal data to a 4-parameter logistic equation.

activity as antagonists of the glucocorticoid receptor function [1]	IC50 [2] [nM]	activity as an agonist of the glucocorticoid receptor function [1]	SMILES
activity as antagonists	–	–	Cc1cccc(Cl)c1S(=O)(=O)NC(C)Cc1c[nH]c2ccccc12 (centres unmarked) [2-Chloro-N-[2-(1H-indol-3-yl)-1-methylethyl]-6-methylbenzenesulfonamide]
–	≤ 100	–	CCC(Cc1c[nH]c2ccccc12)NS(=O)(=O)c1c(C)cc(C)cc1C (centres unmarked) [N-[1-(1H-Indol-3-ylmethyl)propyl]-2,4,6-trimethylbenzenesulfonamide]
activity as antagonists	≤ 100	–	CC(Cc1c[nH]c2ccccc12)NS(=O)(=O)c1c(C(C)C)cc(C(C)C)cc1C(C)C (centres unmarked) [N-[2-(1H-Indol-3-yl)-1-methylethyl]-2,4,6-triisopropylbenzenesulfonamide]
activity as antagonists	≤ 100	–	CC(Cc1c[nH]c2ccccc12)NS(=O)(=O)c1c(Cl)cc(Cl)cc1Cl (centres unmarked) [2,4,6-Trichloro-N-[2-(1H-indol-3-yl)-1-methylethyl]benzenesulfonamide]
–	≤ 100	activity as an agonist	Cc1cc(C)c(S(=O)(=O)NC(C)Cc2c[nH]c3ccccc23)c(C)c1 (centres unmarked) [N-[2-(1H-Indol-3-yl)-1-methylethyl]-2,4,6-trimethylbenzenesulfonamide]
–	≤ 100	–	Cc1cc(C)c(S(=O)(=O)NC(C)Cc2c[nH]c3cc(F)ccc23)c(C)c1 (centres unmarked) [N-[2-(6-Fluoro-1H-indol-3-yl)-1-methylethyl]-2,4,6-trimethylbenzenesulfonamide]
–	≤ 100	–	Cc1cc(C)c(S(=O)(=O)NC(C)Cc2c[nH]c3ccc(F)cc23)c(C)c1 (centres unmarked) [N-[2-(5-Fluoro-1H-indol-3-yl)-1-methylethyl]-2,4,6-trimethylbenzenesulfonamide]
activity as antagonists	≤ 100	–	CC(Cc1c[nH]c2ccccc12)NS(=O)(=O)c1c(Cl)sc(Cl)c1Br (centres unmarked) [4-Bromo-2,5-dichlorothiophene-3-sulfonic acid [2-(1H-indol-3-yl)-1-methylethyl]amide]
–	≤ 100	–	CCC(Cc1c[nH]c2ccccc12)NS(=O)(=O)c1c(Cl)cc(Cl)cc1Cl (centres unmarked) [2,4,6-Trichloro-N-[1-(1H-indol-3-ylmethyl)propyl]benzenesulfonamide]

SMILES	activity as antagonists of the glucocorticoid receptor function [1]	IC50 [2] [nM]	activity as an agonist of the glucocorticoid receptor function [1]
CC(Cc1c[nH]c2ccccc12)NS(=O)(=O)c1c(Cl)cccc1Cl (centres unmarked) [2,6-Dichloro-N-[2-(1H-indol-3-yl)-1-methylethyl]benzenesulfonamide]	activity as antagonists	–	–
